Test results: PubChem BioAssay AID2060493 (Molecular Pharmacology Branch, DTP, NCI, 2025)
pIC50: −log10 of the molar value. One block for each molecule: values may come before it.

Test system: 616215-338-R-J1-PDC tumor spheroids, viability
Test: Anticancer human tumor 616215-338-R-J1-PDC patient-derived colon adenocarcinoma cell line growth inhibition [GQUAD]
Details: spheroids with HUVEC and MSC; for pIC50: curve of first compound; for viability, T/C: stronger effect = lower value
Outline: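 Multi-cell-type spheroids of tumor cells with HUVEC and mesenchymal stem cells, treated with drug combinations. Concentrations descend in half-log steps from near clinical Cmax, or from 10 microM where Cmax is unknown; viability read-out.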

[1] = second compound 0.0316 µM, first compound 0.0316 µM
[2] = second compound 0.0316 µM, first compound 0.1 µM
[3] = second compound 0.0316 µM, first compound 0.316 µM
[4] = second compound 0.0316 µM, first compound 1 µM
[5] = second compound 0.0316 µM, first compound 3.16 µM
[6] = second compound 0.0316 µM, first compound 10 µM
[7] = second compound 0.1 µM, first compound 0.0316 µM
[8] = second compound 0.1 µM, first compound 0.1 µM
[9] = second compound 0.1 µM, first compound 0.316 µM
[10] = second compound 0.1 µM, first compound 1 µM
[11] = second compound 0.1 µM, first compound 3.16 µM
[12] = second compound 0.1 µM, first compound 10 µM
[13] = second compound 0.316 µM, first compound 0.0316 µM
[14] = second compound 0.316 µM, first compound 0.1 µM
[15] = second compound 0.316 µM, first compound 0.316 µM
[16] = second compound 0.316 µM, first compound 1 µM
[17] = second compound 0.316 µM, first compound 3.16 µM
[18] = second compound 0.316 µM, first compound 10 µM
[19] = second compound 1 µM, first compound 0.0316 µM
[20] = second compound 1 µM, first compound 0.1 µM
[21] = second compound 1 µM, first compound 0.316 µM
[22] = second compound 1 µM, first compound 1 µM
[23] = second compound 1 µM, first compound 3.16 µM
[24] = second compound 1 µM, first compound 10 µM
[25] = second compound 3.16 µM, first compound 0.0316 µM
[26] = second compound 3.16 µM, first compound 0.1 µM
[27] = second compound 3.16 µM, first compound 0.316 µM
[28] = second compound 3.16 µM, first compound 1 µM
[29] = second compound 3.16 µM, first compound 3.16 µM
[30] = second compound 3.16 µM, first compound 10 µM
[31] = second compound 10 µM, first compound 0.0316 µM
[32] = second compound 10 µM, first compound 0.1 µM
[33] = second compound 10 µM, first compound 0.316 µM
[34] = second compound 10 µM, first compound 1 µM
[35] = second compound 10 µM, first compound 3.16 µM
[36] = second compound 10 µM, first compound 10 µM
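Note: spheroids exposed to agents for 7 days before readout.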
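Throughout, for viability, T/C: percent viability relative to DMSO vehicle control wells taken as 100%.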

Structure (SMILES): CCCS(=O)(=O)Nc1ccc(F)c(C(=O)c2c[nH]c3ncc(-c4ccc(Cl)cc4)cc23)c1F + CN(C)c1ccc(Nc2c3ccc(NC(=O)CCN4CCCC4)cc3nc3cc(NC(=O)CCN4CCCC4)ccc23)cc1
pIC50 (second compound 0.0316 µM): 5.25
pIC50 (second compound 0.1 µM): 5.27
pIC50 (second compound 0.316 µM): 5.27
pIC50 (second compound 1 µM): 5.23
pIC50 (second compound 3.16 µM): 5.29
pIC50 (second compound 10 µM): 5.42
viability, T/C [1]: 103%
viability, T/C [2]: 110%
viability, T/C [3]: 108%
viability, T/C [4]: 105%
viability, T/C [5]: 94.3%
viability, T/C [6]: 3.74%
viability, T/C [7]: 101%
viability, T/C [8]: 92.6%
viability, T/C [9]: 112%
viability, T/C [10]: 94.6%
viability, T/C [11]: 89.8%
viability, T/C [12]: 3.81%
viability, T/C [13]: 105%
viability, T/C [14]: 96.5%
viability, T/C [15]: 99.7%
viability, T/C [16]: 92%
viability, T/C [17]: 89.3%
viability, T/C [18]: 4.92%
viability, T/C [19]: 112%
viability, T/C [20]: 88.7%
viability, T/C [21]: 89.1%
viability, T/C [22]: 100%
viability, T/C [23]: 97.3%
viability, T/C [24]: 10.3%
viability, T/C [25]: 101%
viability, T/C [26]: 99.4%
viability, T/C [27]: 105%
viability, T/C [28]: 85.4%
viability, T/C [29]: 84.9%
viability, T/C [30]: 7.85%
viability, T/C [31]: 88.9%
viability, T/C [32]: 73.8%
viability, T/C [33]: 94%
viability, T/C [34]: 88%
viability, T/C [35]: 58.4%
viability, T/C [36]: 5.74%

Structure (SMILES): CC1COCCN1c1cc(C2(O)CC3CCC(C2)O3)c2cnn(-c3ccn[nH]3)c2n1 (stereo unspecified) + Cc1[nH]c2ccc(F)cc2c1-c1nc2c3cccnc3c3ncccc3c2[nH]1
pIC50 (second compound 0.0316 µM): 6.63
pIC50 (second compound 0.1 µM): 6.65
pIC50 (second compound 0.316 µM): 6.63
pIC50 (second compound 1 µM): 6.65
pIC50 (second compound 3.16 µM): 6.75
pIC50 (second compound 10 µM): 6.92
viability, T/C [1]: 95.4%
viability, T/C [2]: 78%
viability, T/C [3]: 40.1%
viability, T/C [4]: 30.6%
viability, T/C [5]: 28.8%
viability, T/C [6]: 25.9%
viability, T/C [7]: 90.2%
viability, T/C [8]: 83.9%
viability, T/C [9]: 35.6%
viability, T/C [10]: 31.1%
viability, T/C [11]: 23.8%
viability, T/C [12]: 17%
viability, T/C [13]: 91.8%
viability, T/C [14]: 61.5%
viability, T/C [15]: 42.4%
viability, T/C [16]: 40%
viability, T/C [17]: 26.1%
viability, T/C [18]: 19.9%
viability, T/C [19]: 99.5%
viability, T/C [20]: 59.7%
viability, T/C [21]: 47.4%
viability, T/C [22]: 32.7%
viability, T/C [23]: 23.2%
viability, T/C [24]: 19.3%
viability, T/C [25]: 92.4%
viability, T/C [26]: 71.8%
viability, T/C [27]: 27.2%
viability, T/C [28]: 31.7%
viability, T/C [29]: 25.7%
viability, T/C [30]: 16.4%
viability, T/C [31]: 88.4%
viability, T/C [32]: 50.8%
viability, T/C [33]: 36.1%
viability, T/C [34]: 30%
viability, T/C [35]: 20.8%
viability, T/C [36]: 20.2%

pIC50 (second compound 0.0316 µM): < 6.50
pIC50 (second compound 0.1 µM): 6.63
pIC50 (second compound 0.316 µM): > 9.00
pIC50 (second compound 1 µM): > 9.00
pIC50 (second compound 3.16 µM): > 9.00
pIC50 (second compound 10 µM): > 9.00
Structure (SMILES): Cn1ncnc1[C@H]1c2n[nH]c(=O)c3cc(F)cc(c23)N[C@@H]1c1ccc(F)cc1 + Cc1cnc(CNC(=O)c2c(=O)c3ccc(N4CCCN(C)CC4)nc3n3c2sc2ccccc23)cn1
viability, T/C (second compound 0.0316 µM, first compound 0.000999 µM): 102%
viability, T/C (second compound 0.0316 µM, first compound 0.00316 µM): 99.4%
viability, T/C (second compound 0.0316 µM, first compound 0.00999 µM): 104%
viability, T/C [1]: 94.8%
viability, T/C (second compound 0.0316 µM, first compound 0.0999 µM): 86.5%
viability, T/C [3]: 77.9%
viability, T/C (second compound 0.1 µM, first compound 0.000999 µM): 68.2%
viability, T/C (second compound 0.1 µM, first compound 0.00316 µM): 75.2%
viability, T/C (second compound 0.1 µM, first compound 0.00999 µM): 77.9%
viability, T/C [7]: 56.5%
viability, T/C (second compound 0.1 µM, first compound 0.0999 µM): 58.5%
viability, T/C [9]: 48.1%
viability, T/C (second compound 0.316 µM, first compound 0.000999 µM): 40.9%
viability, T/C (second compound 0.316 µM, first compound 0.00316 µM): 53.4%
viability, T/C (second compound 0.316 µM, first compound 0.00999 µM): 44.3%
viability, T/C [13]: 44.4%
viability, T/C (second compound 0.316 µM, first compound 0.0999 µM): 48.4%
viability, T/C [15]: 29.5%
viability, T/C (second compound 1 µM, first compound 0.000999 µM): 28.2%
viability, T/C (second compound 1 µM, first compound 0.00316 µM): 34.9%
viability, T/C (second compound 1 µM, first compound 0.00999 µM): 27.3%
viability, T/C [19]: 44.1%
viability, T/C (second compound 1 µM, first compound 0.0999 µM): 33.2%
viability, T/C [21]: 33.2%
viability, T/C (second compound 3.16 µM, first compound 0.000999 µM): 34.9%
viability, T/C (second compound 3.16 µM, first compound 0.00316 µM): 27.5%
viability, T/C (second compound 3.16 µM, first compound 0.00999 µM): 26.4%
viability, T/C [25]: 30.6%
viability, T/C (second compound 3.16 µM, first compound 0.0999 µM): 29%
viability, T/C [27]: 33.3%
viability, T/C (second compound 10 µM, first compound 0.000999 µM): 31.2%
viability, T/C (second compound 10 µM, first compound 0.00316 µM): 27.4%
viability, T/C (second compound 10 µM, first compound 0.00999 µM): 30.1%
viability, T/C [31]: 35.5%
viability, T/C (second compound 10 µM, first compound 0.0999 µM): 27.4%
viability, T/C [33]: 30.2%
